Values joined by “and” are separate entries in the source; they are usually repeats but may differ in a detail not shown here. Equal entries are not always repeated. Where two headings read alike, the source gives them in different places.

Experiment [1] addresses T1, CHRM1 (Homo sapiens, UniProt P11229).
T1 construct: purchased Promega (in-house HiBiT-GPCR construct library, NanoBRET)
T1 sequence (P11229 1-460): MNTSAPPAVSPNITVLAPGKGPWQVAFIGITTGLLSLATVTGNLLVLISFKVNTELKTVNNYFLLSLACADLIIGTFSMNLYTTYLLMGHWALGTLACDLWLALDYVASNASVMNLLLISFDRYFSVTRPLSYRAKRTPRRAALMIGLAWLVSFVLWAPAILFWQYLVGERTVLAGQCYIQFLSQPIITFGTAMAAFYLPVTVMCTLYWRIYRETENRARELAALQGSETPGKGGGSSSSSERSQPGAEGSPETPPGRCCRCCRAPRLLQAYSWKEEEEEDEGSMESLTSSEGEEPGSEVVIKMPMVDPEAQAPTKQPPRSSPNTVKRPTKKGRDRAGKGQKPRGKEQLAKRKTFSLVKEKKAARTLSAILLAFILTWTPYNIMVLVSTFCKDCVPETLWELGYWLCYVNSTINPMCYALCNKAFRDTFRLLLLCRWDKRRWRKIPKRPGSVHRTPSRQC
Put plainly: NanoBRET screen HiBiT-CHRM1 in HEK293. The format is binding. Background: Bioluminescence resonance energy transfer reports proximity on the nanometre scale.

The target in experiment [2] is T2, CHRM3 (Homo sapiens, UniProt P20309).
T2 construct: purchased Promega (in-house HiBiT-GPCR construct library, NanoBRET)
T2 sequence (P20309 whole entry): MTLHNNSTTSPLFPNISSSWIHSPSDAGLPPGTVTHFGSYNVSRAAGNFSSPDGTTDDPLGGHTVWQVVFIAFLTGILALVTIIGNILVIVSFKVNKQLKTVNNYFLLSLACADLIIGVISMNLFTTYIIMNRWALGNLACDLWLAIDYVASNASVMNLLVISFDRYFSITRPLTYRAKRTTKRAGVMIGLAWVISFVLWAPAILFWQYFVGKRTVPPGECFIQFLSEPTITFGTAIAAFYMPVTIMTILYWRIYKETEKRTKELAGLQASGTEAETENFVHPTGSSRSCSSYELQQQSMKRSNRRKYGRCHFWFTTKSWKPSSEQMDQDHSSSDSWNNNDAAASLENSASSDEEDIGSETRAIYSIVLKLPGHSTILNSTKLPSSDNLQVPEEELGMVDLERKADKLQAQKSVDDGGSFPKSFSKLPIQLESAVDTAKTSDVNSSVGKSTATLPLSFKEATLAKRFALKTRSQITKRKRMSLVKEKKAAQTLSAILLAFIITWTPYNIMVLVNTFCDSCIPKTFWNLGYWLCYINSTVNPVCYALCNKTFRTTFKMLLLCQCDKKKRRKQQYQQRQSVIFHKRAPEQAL
Kind of experiment: NanoBRET screen HiBiT-CHRM3 in HEK293. The format is binding.

In experiment [3] the target is T3, HRH1 (Homo sapiens, UniProt P35367).
T3 construct: purchased Promega (in-house HiBiT-GPCR construct library, NanoBRET)
T3 sequence (P35367 whole entry): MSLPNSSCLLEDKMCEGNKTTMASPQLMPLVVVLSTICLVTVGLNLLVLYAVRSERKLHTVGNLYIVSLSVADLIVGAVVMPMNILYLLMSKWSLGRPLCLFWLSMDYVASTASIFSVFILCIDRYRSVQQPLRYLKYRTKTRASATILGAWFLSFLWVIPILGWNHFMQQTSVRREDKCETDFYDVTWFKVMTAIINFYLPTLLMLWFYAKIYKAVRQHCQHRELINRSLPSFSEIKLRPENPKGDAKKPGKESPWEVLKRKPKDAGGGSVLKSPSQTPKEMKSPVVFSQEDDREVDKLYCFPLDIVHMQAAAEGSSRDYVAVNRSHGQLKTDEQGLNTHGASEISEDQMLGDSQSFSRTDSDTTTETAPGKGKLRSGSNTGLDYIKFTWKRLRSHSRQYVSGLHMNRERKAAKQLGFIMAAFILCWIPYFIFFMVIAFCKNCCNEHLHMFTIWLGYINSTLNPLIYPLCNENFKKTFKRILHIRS
Put plainly: NanoBRET screen HiBiT-HRH1 in HEK293. The format is binding.

The target in experiment [4] is T4, PDGFRB (Homo sapiens, UniProt P09619).
T4 construct: purchased Promega (in-house HiBiT-GPCR construct library, NanoBRET)
T4 sequence (P09619 33-1106): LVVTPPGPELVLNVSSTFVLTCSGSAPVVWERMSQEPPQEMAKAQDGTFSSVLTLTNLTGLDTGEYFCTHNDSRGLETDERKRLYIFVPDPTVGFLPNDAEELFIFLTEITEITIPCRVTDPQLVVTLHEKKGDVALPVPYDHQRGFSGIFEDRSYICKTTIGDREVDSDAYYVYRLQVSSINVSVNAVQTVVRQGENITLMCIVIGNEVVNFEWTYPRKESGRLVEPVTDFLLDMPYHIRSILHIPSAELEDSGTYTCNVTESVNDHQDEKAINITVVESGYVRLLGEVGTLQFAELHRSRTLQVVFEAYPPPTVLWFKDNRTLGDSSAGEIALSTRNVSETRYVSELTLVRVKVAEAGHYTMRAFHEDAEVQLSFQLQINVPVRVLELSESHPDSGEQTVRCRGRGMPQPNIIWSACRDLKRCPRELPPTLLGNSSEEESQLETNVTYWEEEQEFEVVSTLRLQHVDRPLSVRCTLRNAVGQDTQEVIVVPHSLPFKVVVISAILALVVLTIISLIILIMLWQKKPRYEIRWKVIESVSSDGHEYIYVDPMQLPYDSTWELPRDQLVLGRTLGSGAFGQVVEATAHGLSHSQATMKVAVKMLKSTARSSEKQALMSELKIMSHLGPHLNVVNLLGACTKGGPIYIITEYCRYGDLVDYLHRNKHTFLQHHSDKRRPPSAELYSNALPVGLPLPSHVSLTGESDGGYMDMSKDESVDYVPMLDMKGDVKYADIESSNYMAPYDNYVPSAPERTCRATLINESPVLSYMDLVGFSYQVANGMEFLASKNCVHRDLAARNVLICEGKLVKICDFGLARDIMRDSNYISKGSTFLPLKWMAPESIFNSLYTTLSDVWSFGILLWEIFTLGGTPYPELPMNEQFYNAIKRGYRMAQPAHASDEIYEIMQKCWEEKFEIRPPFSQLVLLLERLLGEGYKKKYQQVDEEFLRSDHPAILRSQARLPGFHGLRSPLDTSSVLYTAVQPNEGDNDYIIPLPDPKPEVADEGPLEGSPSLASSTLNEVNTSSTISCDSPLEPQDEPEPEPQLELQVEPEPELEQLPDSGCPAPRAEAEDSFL
Kind of experiment: NanoBRET screen HiBiT-PDGFRB in HEK293. Format: binding. The procedure:
(§1) Each tracer candidate was screened across the entire library of HiBiT-GPCR constructs using NanoBRET as the detection modality. As depicted in Figure 4A, the specificity of interactions was evaluated through decrease in BRET due to competitive displacement of a bound tracer by excess parental compound. Each tracer was analyzed for binding to each HiBiT-GPCR fusion in the absence and in the presence of competing parental compound. Briefly, HEK293 cells were transfected with HiBiT-GPCR constructs diluted into promoterless DNA to reduce expression and maximize translocation to the cell surface. Each tracer candidate was then screened at concentrations of 1 μM and 0.1 μM across cells expressing these fusions. Cells were treated for 1.5 h with tracer either alone or in the presence of 20 μM competing parental compound (i.e., control). BRET was measured upon addition of purified LgBiT and subsequent complementation with HiBiT genetically fused to a GPCR. The specificity of interactions was assessed through a decrease in BRET signal due to competitive displacement of the bound tracer. To further gauge the robustness of these interactions, the fold response over the control (i.e., BRETtracer/BRETcontrol) was calculated. We chose a 1.5-fold response, which translates to ≥7-fold signal over noise as the minimal threshold required to score an interaction as positive. […]. Below we highlight the screening results obtained for our exemplary fluorescent tracers based on Clozapine, Amitriptyline and AZD1283.
HiBiT-GPCR DNA constructs were diluted in 10 mM Tris pH 8 to a final concentration of 0.01 μg/μL, arrayed in 96-well plates and stored at −20 °C. For transfection, HEK293 cells were suspended in Opti-MEM (without phenol red) supplemented with 2% fetal bovine serum (Seradigm) and 100 units/mL penicillin–streptomycin (Gibco) at a final concentration of 220,000 cells/mL and dispensed into white 96-well plates at 90 μL/well. Subsequent transfections and screens were carried using an Agilent Bravo Automated Liquid Handling Platform. First, the 96-well HiBiT DNA arrays were diluted 25-fold in Opti-MEM (without serum or phenol red) to a final concentration of 0.0004 μg/μL and 20 μL of the diluted DNAs were transferred into new 96-well plates. Next, promoterless carrier DNA (1 μg/μL) was diluted 25-fold (0.04 μg/μL) and then dispensed into the diluted arrays at 20 μL/well. Following brief mixing, Viafect transfection reagent (Promega) diluted 16-fold into Opti-MEM was dispensed into the plates at 40 μL/well. After mixing by pipetting, plates were incubated for 10 min on the pipetting station deck. The DNA-transfection reagent complexes were then added to plates containing cells. To facilitate the screen, 10 μL of DNA-transfection reagent complexes were added in duplicates to the top 4 and bottom 4 rows, resulting in two identical 48-well arrays per plate. Plates with transfected cells were incubated for 18–20 h at 37 °C/5% CO2. A screen of each tracer across the entire library using two different concentrations requires duplicate plates of transfected cells. Depending on the number of tracers being screened, transfections can be scaled up using the same ratios. The next day, for each tracer, four 20× screening solutions in tracer dilution buffer (Promega) were prepared: two duplicates at final concentration of 20 μM and two duplicates at a final concentration of 2 μM. A competing unmodified compound was added to one of each duplicate at a final concentration of 400 μM. The four resulting solutions were diluted 4-fold in Opti-MEM without serum or phenol red to generate 5× solutions (5 µM and 0.5 µM tracer +/− 100 μM competing compound). To screen the library, a BioTek MultiFlo FX liquid dispenser was used to dispense 22.5 µL of tracer solution to the top 4 rows and 22.5 µL tracer + competing compound solution to the 4 bottom rows. Plates were briefly mixed on an orbital shaker and incubated for 1.5 h at room temperature. […]

Experiment [5] deals with 184 HiBiT-GPCRs from 51 families. Put plainly: NanoBRET screen, binding profile across the HiBiT-GPCR library. To be noted: screen at 1 μM and 0.1 μM tracer. Also on record: species or system human. As for the experimental part: as §1, with “Below we highlight the screening results obtained for our exemplary fluorescent tracers based on Clozapine, Amitriptyline and AZD1283.” left out

Turning to `CC(C)N(CC[C@H](c1ccccc1)c1cc(CCNC(=O)CCOCCOCCOCCOCCNC(=O)CCc2ccc3n2[B-](F)(F)[N+]2=C(c4ccc[nH]4)C=CC2=C3)ccc1O)C(C)C` [Tolterodine-2-NB590], the “NanoBRET Fold Response” value in experiment [1] is 1.59 and 2.16; in experiment [2] (CHRM3, tracer 0.1μM), 1.67; in experiment [2] (CHRM3, tracer 1μM), 1.52; in experiment [3] (HRH1, tracer 0.1μM), 1.08; in experiment [3] (HRH1, tracer 1μM) it was 1.58; in experiment [4] (PDGFRB, tracer 0.1μM) it was 1.22. For the same compound, the “NanoBRET Fold Response” value in experiment [4] (PDGFRB, tracer 1μM) was 0.94.

Take `N#CN=C(NCCCOc1cccc(CN2CCCCC2)c1)NCCNC(=O)CCOCCOCCOCCOCCNC(=O)CCc1ccc2n1[B-](F)(F)[N+]1=C(c3ccc[nH]3)C=CC1=C2` [Aminopotentidine-2-NB590]: the “NanoBRET Fold Response” value in experiment [1] (CHRM1, tracer 0.1μM) is on record as 0.98; in experiment [1] (CHRM1, tracer 1μM) it was 1.35; in experiment [2] (CHRM3, tracer 0.1μM), 0.99; in experiment [2] (CHRM3, tracer 1μM), 1.04; in experiment [3] (HRH1, tracer 0.1μM) it was 0.91; in experiment [3] (HRH1, tracer 1μM), 1.08. Besides, the “NanoBRET Fold Response” value in experiment [4] (PDGFRB, tracer 0.1μM) is on record as 0.90; in experiment [4] (PDGFRB, tracer 1μM) it was 1.01.

Take `COc1ccc2c(n1)c(CCNC(C)=O)cn2CCNC(=O)CCc1ccc2n1[B-](F)(F)[N+]1=C(c3ccc[nH]3)C=CC1=C2` [Azamelatonin-1-NB590]: the “NanoBRET Fold Response” value in experiment [1] (0.1μM tracer) was 1.17; in experiment [1] (1μM tracer), 0.93; in experiment [2] (0.1μM tracer), 1.05; in experiment [2] (1μM tracer) it was 0.96; in experiment [3] (0.1μM tracer), 1.14; in experiment [3] (1μM tracer) it was 1.14. In addition, the “NanoBRET Fold Response” value in experiment [4] (0.1μM tracer) and in experiment [4] (1μM tracer) was 0.56 throughout.

As for `CN(CCC=C1c2ccccc2CCc2ccccc21)C(=O)CCOCCOCCOCCOCCNC(=O)CCc1ccc2n1[B-](F)(F)[N+]1=C(c3ccc[nH]3)C=CC1=C2` [Amitriptyline-e-2-NB590], the “Number of GPCRs with specific interactions (≥[…] response)” value in experiment [5] is “no specific interactions”. The “NanoBRET Fold Response” value in experiment [4] (tracer at 1μM) is on record as 1.04.

Regarding `CC(C)N(CC[C@H](c1ccccc1)c1cc(CCNC(=O)c2ccc(CNC(=O)CCc3ccc4n3[B-](F)(F)[N+]3=C(c5ccc[nH]5)C=CC3=C4)cc2)ccc1O)C(C)C` [Tolterodine-BZ-NB590], the “NanoBRET Fold Response” value in experiment [1] is 2.14 and 2.47; in experiment [2] (CHRM3, tracer 0.1μM), 1.18; in experiment [2] (CHRM3, tracer 1μM) it was 1.25; in experiment [3] (HRH1, tracer 0.1μM), 0.99; in experiment [3] (HRH1, tracer 1μM) it was 1.10; in experiment [4] (PDGFRB, tracer 0.1μM) it was 1.14. Moreover, the “NanoBRET Fold Response” value in experiment [4] (PDGFRB, tracer 1μM) turned out to be 1.21.

In the case of `O=C(CCOCCOCCOCCOCCNC(=O)CCc1ccc2n1[B-](F)(F)[N+]1=C(c3ccc[nH]3)C=CC1=C2)NCCCN1CCN(C2=Nc3cc(Cl)ccc3Nc3ccccc32)CC1` [Clozapine-a-2-NB590], the “NanoBRET Fold Response” value is 1.09 in experiment [1] (CHRM1, 0.1μM tracer); 0.98 in experiment [1] (CHRM1, 1μM tracer); 1.06 in experiment [2] (CHRM3, 0.1μM tracer); 0.92 in experiment [2] (CHRM3, 1μM tracer); 4.67 in experiment [3] (HRH1, 0.1μM tracer); 4.78 in experiment [3] (HRH1, 1μM tracer). Moreover, the “NanoBRET Fold Response” value in experiment [4] (PDGFRB, 0.1μM tracer) is reported as 1.09; in experiment [4] (PDGFRB, 1μM tracer), 0.88.

The values above are taken from article PMC8151276, “An Integrated Approach toward NanoBRET Tracers for Analysis of GPCR Ligand Engagement” (Molecules, 2021).
